Where two headings read alike, the source gives them in different places.
Assays:
[1] = target: T1, human somatostatin receptor subtype 2 (Homo sapiens, UniProt P30874); assay: cAMP assay for SST2R (inhibition of cAMP in CHO-K1 cells); assay type: cell-based; details: Table B; inhibition of cAMP via human SST2 receptor; read-out: SST2 potency
T1 construct: expressed in transfected cells
Text: General overview: All five SSTR subtypes are Gi coupled G-protein coupled receptors (GPCRs) that lead to decreases in intracellular cyclic AMP (cAMP) when activated by an agonist. Therefore, measurement of intracellular cAMP levels can be used to assess whether compounds of the invention are agonists of SSTR subtypes (John Kelly, Troy Stevens, W. Joseph Thompson, and Roland Seifert, Current Protocols in Pharmacology, 2005, 2.2.1-2.2). One example of an intracellular cAMP assay is described below.
cAMP Assay Protocol for SST2R:
Four days prior to the assay, 5,000 Chinese hamster ovary cells (CHO-K1, ATCC #CCL-61) stably expressing the human somatostatin receptor subtype 2 are plated in each well of a 96-well tissue culture-treated plate in Ham's F12 growth media (ThermoFisher #10-080-CM) supplemented with 10% donor bovine serum (Gemini Bio-Products #100-506), 100 U/mL penicillin; 100 μg/mL streptomycin; 2 mM L-glutamine (Gemini Bio-Products #400-110) and 0.2 mg/mL hygromycin B (GoldBio #31282-04-9). The cells are cultured at 37° C., 5% CO2 and 95% humidity. On the day of the assay, the media is aspirated and the cells are treated with 50 μL of 1.6 μM NKH477 (Sigma #N3290) plus various dilutions of compounds of the invention in assay buffer [1× Hank's Balanced Salt Solution (ThermoFisher #SH3058802), 0.5 mM HEPES pH 7.4, 0.1% bovine serum albumin, 0.2 mM 3-Isobutyl-1-methylxanthine (IBMX, VWR #200002-790)]. The cells are incubated for 20 minutes at 37° C. […] The cells are treated with 50 μL of lysis buffer (HRTF cAMP kit, Cisbio). The lysate is transferred to 384-well plates and cAMP detection and visualization antibodies are added and incubated for 1-24 hours at room temperature. The time-resolved fluorescent signal is read with a Tecan M1000Pro multiplate reader. The intracellular cAMP concentrations are calculated by regression to a standard curve and are plotted vs. the concentration of the compounds of the invention and the EC50 of the compounds are calculated using standard methods. All data manipulations are in GraphPad Prism v6 or v7.

[2] = target: T2, human somatostatin receptor subtype 5 (Homo sapiens, UniProt P35346); assay: cAMP assay for SST5R (inhibition of cAMP in CHO-K1 cells); assay type: cell-based; details: for EC50: inhibition of cAMP via human SST5 receptor, read-out: SST5 potency; for Fold selectivity for SST5 vs SST2: class symbols, SST5 receptor over SST2 receptor
T2 construct: expressed in transfected cells
T2 sequence (P35346 whole entry): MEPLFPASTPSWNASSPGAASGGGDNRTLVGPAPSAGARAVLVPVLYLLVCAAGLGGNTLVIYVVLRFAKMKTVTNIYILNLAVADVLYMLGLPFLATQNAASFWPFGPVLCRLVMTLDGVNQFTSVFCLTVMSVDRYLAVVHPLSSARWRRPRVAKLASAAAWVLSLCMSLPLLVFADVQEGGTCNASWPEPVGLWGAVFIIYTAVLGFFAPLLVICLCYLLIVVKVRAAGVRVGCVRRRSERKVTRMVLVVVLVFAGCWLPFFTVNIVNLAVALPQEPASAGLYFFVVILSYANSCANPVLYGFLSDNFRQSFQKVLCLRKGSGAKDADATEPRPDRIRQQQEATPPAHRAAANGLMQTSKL
Method in brief: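 CHO-K1 cells stably expressing human SSTR5 were treated 20 min at 37 °C with compounds plus 1.6 μM NKH477 in HBSS, 0.5 mM HEPES pH 7.4, 0.1% BSA, 0.2 mM IBMX. Lysate cAMP measured by HTRF against a standard curve; EC50 from cAMP-versus-concentration plots.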

T1 sequence (P30874 whole entry): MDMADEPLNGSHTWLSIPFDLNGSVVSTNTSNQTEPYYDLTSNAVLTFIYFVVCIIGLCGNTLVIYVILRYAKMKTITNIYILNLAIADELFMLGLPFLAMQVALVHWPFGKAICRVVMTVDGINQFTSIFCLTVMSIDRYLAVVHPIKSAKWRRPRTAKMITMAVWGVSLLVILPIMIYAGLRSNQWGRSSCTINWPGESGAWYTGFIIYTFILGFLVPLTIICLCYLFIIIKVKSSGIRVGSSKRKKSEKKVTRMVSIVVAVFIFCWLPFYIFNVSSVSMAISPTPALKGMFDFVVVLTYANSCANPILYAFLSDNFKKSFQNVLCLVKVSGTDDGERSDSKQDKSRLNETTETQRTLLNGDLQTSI

SMILES	EC50 [1] [nM]	EC50 ([2]; Table A) [nM]	Fold selectivity for SST5 vs SST2 ([2]; Table B)	EC50 ([2]; Table B) [nM]
C[C@]1(N)CCN(c2c(C(=O)NC3CCCCC3)cnc(C(F)(F)F)c2-c2cc(F)cc(F)c2)C1 [1-210, 4-[(3S)-3-amino-3-methylpyrrolidin-1-yl]-N-cyclohexyl-5-(3,5-difluorophenyl)-6-(trifluoromethyl)pyridine-3-carboxamide]	10 to 100	< 10	+++ (+++=>500)	< 10
COc1ncc(C(=O)NC2CC(F)(F)C2)c(N2CC[C@](C)(N)C2)c1-c1cc(F)cc(F)c1 [1-137, 4-[(3S)-3-amino-3-methylpyrrolidin-1-yl]-N-(3,3-difluorocyclobutyl)-5-(3,5-difluorophenyl)-6-methoxypyridine-3-carboxamide]	100 to 1000	< 10	+++ (+++=>500)	< 10
C[C@H](NC(=O)c1cnc(C#N)c(-c2cc(F)cc(F)c2)c1N1CC[C@](C)(N)C1)C(F)(F)F [1-192, 4-[(3S)-3-amino-3-methylpyrrolidin-1-yl]-6-cyano-5-(3,5-difluorophenyl)-N-[(2S)-1,1,1-trifluoropropan-2-yl]pyridine-3-carboxamide]	10 to 100	< 10	++ (++=100 to 499)	< 10
COc1ncc(C(=O)N[C@@H](C)C(F)(F)F)c(N2CC[C@](C)(N)C2)c1-c1cccc2c1cnn2C [1-183, 4-[(3S)-3-amino-3-methylpyrrolidin-1-yl]-6-methoxy-5-(1-methyl-1H-indazol-4-yl)-N-[(2S)-1,1,1-trifluoropropan-2-yl]pyridine-3-carboxamide]	> 1000	< 10	+++ (+++=>500)	< 10
C[C@H](NC(=O)c1cnc(C#N)c(-c2cc(F)cc(F)c2)c1N1CC[C@](C)(N)C1)C1CC1 [1-77, 4-[(3S)-3-amino-3-methylpyrrolidin-1-yl]-6-cyano-N-[(1S)-1-cyclopropylethyl]-5-(3,5-difluorophenyl)pyridine-3-carboxamide]	10 to 100	< 10	+++ (+++=>500)	< 10
C[C@H](NC(=O)c1cncc(-c2cc(F)cc(F)c2)c1N1CC[C@](C)(N)C1)C1CC1 [1-41, 4-[(3S)-3-amino-3-methylpyrrolidin-1-yl]-N-[(1S)-1-cyclopropylethyl]-5-(3,5-difluorophenyl)pyridine-3-carboxamide]	10 to 100	< 10	++ (++=100 to 499)	< 10
CCC(CC)NC(=O)c1cncc(-c2cc(F)cc(F)c2)c1N1CC[C@](C)(N)C1 [1-31, 4-[(3S)-3-amino-3-methylpyrrolidin-1-yl]-5-(3,5-difluorophenyl)-N-(pentan-3-yl)pyridine-3-carboxamide]	100 to 1000	< 10	++ (++=100 to 499)	< 10
C[C@H](NC(=O)c1cnc(OCc2ccccc2)c(-c2cc(F)cc(F)c2)c1N1CC[C@](C)(N)C1)C1CC1 [1-267, 4-[(3S)-3-amino-3-methylpyrrolidin-1-yl]-6-(benzyloxy)-N-[(1S)-1-cyclopropylethyl]-5-(3,5-difluorophenyl)pyridine-3-carboxamide]	100 to 1000	< 10	+++ (+++=>500)	< 10
N#Cc1ncc(C(=O)NC23CC(C2)C3)c(N2CC[C@@](N)(CO)C2)c1-c1cc(F)cc(F)c1 [1-98, 4-[(3S)-3-amino-3-(hydroxymethyl)pyrrolidin-1-yl]-N-{bicyclo[1.1.1]pentan-1-yl}-6-cyano-5-(3,5-difluorophenyl)pyridine-3-carboxamide]	100 to 1000	< 10	++ (++=100 to 499)	< 10
Cc1cc(C)cc(NC(=O)c2cncc(-c3cc(C)cc(C)c3)c2N2CC[C@H](N)C2)c1 [1-1, 4-[(3S)-3-aminopyrrolidin-1-yl]-N,5-bis(3,5-dimethylphenyl)pyridine-3-carboxamide]	10 to 100	< 10	++ (++=100 to 499)	< 10
Cc1ncc(C(=O)N[C@@H](C)C(F)(F)F)c(N2CC[C@H](N)C2)c1-c1cccc(OC(F)F)c1 [1-232, 4-[(3S)-3-aminopyrrolidin-1-yl]-5-[3-(difluoromethoxy)phenyl]-6-methyl-N-[(2S)-1,1,1-trifluoropropan-2-yl]pyridine-3-carboxamide]	> 1000	< 10	+++ (+++=>500)	< 10
COc1ncc(C(=O)N[C@@H](C)C2CC2)c(N2CC[C@](C)(N)C2)c1-c1cc(F)cc(Cl)c1 [1-229, 4-[(3S)-3-amino-3-methylpyrrolidin-1-yl]-5-(3-chloro-5-fluorophenyl)-N-[(1S)-1-cyclopropylethyl]-6-methoxypyridine-3-carboxamide]	10 to 100	< 10	+++ (+++=>500)	< 10
C[C@H](NC(=O)c1cnc(OCC(F)F)c(-c2cc(F)cc(F)c2)c1N1CC[C@](C)(N)C1)C1CC1 [1-177, 4-[(3S)-3-amino-3-methylpyrrolidin-1-yl]-N-[(1S)-1-cyclopropylethyl]-6-(2,2-difluoroethoxy)-5-(3,5-difluorophenyl)pyridine-3-carboxamide]	10 to 100	< 10	+++ (+++=>500)	< 10
Cc1ncc(C(=O)NC2CCCC2)c(N2CC[C@](C)(N)C2)c1-c1ccnc(C(F)(F)F)c1 [1-258, 4-[(3S)-3-amino-3-methylpyrrolidin-1-yl]-N-cyclopentyl-2-methyl-2′-(trifluoromethyl)-[3,4′-bipyridine]-5-carboxamide]	> 1000	< 10	+++ (+++=>500)	< 10
Cc1ncc(C(=O)N[C@@H](C)C(F)(F)F)c(N2CC[C@](C)(N)C2)c1-c1ccc(F)c(Cl)c1 [1-287, 4-[(3S)-3-amino-3-methylpyrrolidin-1-yl]-5-(3-chloro-4-fluorophenyl)-6-methyl-N-[(2S)-1,1,1-trifluoropropan-2-yl]pyridine-3-carboxamide]	10 to 100	< 10	+++ (+++=>500)	< 10
Cc1cccc2[nH]c(-c3cncc(C(=O)N4C5CC6CC(C5)CC4C6)c3N3CC[C@](C)(N)C3)nc12 [2-26, (3S)-1-(3-{2-azatricyclo[3.3.1.1^3,7]decane-2-carbonyl}-5-(4-methyl-1H-1,3-benzodiazol-2-yl)pyridin-4-yl)-3-methylpyrrolidin-3-amine]	100 to 1000	< 10	+++ (+++=>500)	< 10
Cc1ncc(C(=O)NC23CC(C2)C3)c(N2CC[C@](C)(N)C2)c1-c1cc(F)cc(F)c1 [1-74, 4-[(3S)-3-amino-3-methylpyrrolidin-1-yl]-N-{bicyclo[1.1.1]pentan-1-yl}-5-(3,5-difluorophenyl)-6-methylpyridine-3-carboxamide]	> 1000	< 10	+++ (+++=>500)	< 10
